Experimental data from patent US5190919A, “Antihemostatic Factor VII peptides” (Board of Regents, The University of Texas System, priority 1989, dated 1993).
Read-outs that look alike come from different tables or passages of the source. Ends that are not written are not given here.

Legend:
[1] = target: T1, Factor VII-tissue factor complex (Homo sapiens, UniProt P08709+P13726); test: Rate of Factor X activation, two-stage chromogenic (amidolytic) assay with purified proteins; format: biochemical; conditions: for IC50: derivatives of peptide 194-214 (FIG. 4), read-out: Apparent CI50, rate of Factor Xa formation
T1 construct: Factor VII/VIIa (6), Factor X (7), and Factor Xa (8) were isolated as previously reported; Tissue factor was prepared from human brain as described (9); from tissue; host or cells: Tissue factor from human brain (gift of Dr. J. H. Morrissey)
Method: (§1) 3. Rate of Factor X activation: The effect of the synthetic peptides on the rate of activation of Factor X was analyzed in a purified system employing chromogenic assays. For the inhibition experiments, peptides were diluted in 20 mM Tris-HCl, 150 mM NaCl, pH 7.4 (TBS) and preincubated with 10 microliters each of Factor X (180 nM) and tissue factor (0.075%) at 37 degrees Centigrade in a total volume of 140 microliters adjusted with TBS containing 1% bovine serum albumin (BSA) and 5 mM CaCl2. After 30 minutes, Factor X activation was initiated by the addition of 10 microliters of Factor VII (2 pM). At defined timed intervals, 20 microliter aliquots were removed and added to a microtiter plate containing 80 microliters of 50 mM Tris-HCl, 225 mM NaCl and 10 mM EDTA, pH 8.2. Following sample collection, 50 microliters of 0.6 mM chromogenic substrate was added and the rate of change in the absorbance at 405 nm was monitored for 10 minutes using a Vmax Kinetic Microplate Reader (Molecular Devices, Inc., Palo Alto, Calif.). The rate of Factor Xa formation was calculated from the slope of linear regression of data plotted as a function of the initial rate of hydrolysis (OD405 /min) versus time and expressed as OD405 /min^2.
(§2) 5. Inhibition assays: The inhibition of Factor VII function was determined in the two-stage chromogenic assay described in Example I-A, 3. The peptides were initially screened at 200 μM added concentration. To determine the concentration of peptide required to inhibit the rate of Factor X activation by 50% (CI50), peptides at various concentrations or buffer (TBS-BSA) were incubated with their respective complexes. Following the addition of Factor VII, the rate of Factor Xa generation was determined and the percent of Factor X activation in the presence of different concentrations of Factor VII peptides relative to buffer controls was calculated. Analogous determinations of the CI50 values were measured in the specific coagulation assay outlined above. Factor VII activity in the presence of varying concentrations of peptide was measured by comparing the clotting times to a standard curve constructed from the log of the clot time versus the log of Factor VII concentration in the same incubation mixtures described for the peptides.
(§3) Kinetic analysis of multiple inhibitors known to be noncompetitive in nature was conducted holding the concentration of the first inhibitory peptide constant and varying the concentration of a second inhibitory peptide. The analysis for mutual exclusivity of the inhibitory peptides employed the methods adapted from Segel (12). […] Regression lines which intersect with one another indicate mutual non-exclusivity of one peptide to another, i.e. tested peptides act as regions which are spatially separate from one another.
(§4) Factor VII function results from a two-step mechanism. First, Factor VII must associate with tissue factor in order to form the active macromolecular complex and second, Factor VII activity within the macromolecular complex can be measured by the conversion of substrate to product, e.g. activation of Factor X. The peptides of the present invention were tested for their ability to inhibit Factor X activation by employing the two-stage chromogenic assay described in Example I-A, 3. Inhibition of Factor X activation measured by this assay detects both of the steps stated for Factor VII function. To verify the inhibitory effect of the synthetic peptides, each of the components were titrated. […] Factor X was titrated against the preformed Factor VII-tissue factor complex in the presence of at least 10^4 molar excess of each peptide. Selected peptides were inoubated with tissue factor and Factor X for 30 minutes at […] before the addition of Factor VII. This preincubation time was sufficient for the peptides to reach equilibrium with the target protein (13). […]

[2] = tested on: Factor VII-tissue factor complex; test: as above; format: biochemical, human; conditions: for Factor Xa Formation (% of Control Rate): 200 μM of each synthetic peptide, amidolytic assay, purified proteins; for Dose-dependent inhibition of the rate of Factor Xa formation / Factor VII activity: result in words
Method: as §1, §2, §3, §4

Factor VII = target: T2, Factor VII (Homo sapiens, UniProt P08709); test: Two-stage clotting assay specific for Factor VII function in Factor VII-depleted plasma; format: biochemical; conditions: for IC50: Table 2, Factor VII-depleted plasma, tissue factor, read-out: Concentration for 50% Inhibition, VIIa Coagulant Activity
T2 construct: Factor VII/VIIa (6), Factor X (7), and Factor Xa (8) were isolated as previously reported
T2 sequence (P08709 61-466): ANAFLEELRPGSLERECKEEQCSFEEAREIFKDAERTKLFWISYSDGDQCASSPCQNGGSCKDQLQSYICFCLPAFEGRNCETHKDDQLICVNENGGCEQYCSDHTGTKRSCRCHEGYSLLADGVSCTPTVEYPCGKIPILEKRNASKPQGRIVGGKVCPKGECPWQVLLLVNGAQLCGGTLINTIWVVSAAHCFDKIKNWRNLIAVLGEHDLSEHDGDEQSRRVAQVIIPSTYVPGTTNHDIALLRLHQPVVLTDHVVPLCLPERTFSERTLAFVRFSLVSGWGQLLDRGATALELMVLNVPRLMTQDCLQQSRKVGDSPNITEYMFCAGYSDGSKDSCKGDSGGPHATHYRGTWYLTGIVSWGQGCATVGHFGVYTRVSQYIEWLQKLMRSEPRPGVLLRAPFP
Method: 4. Coagulation assays: The effect of the synthetic peptides and antibodies to them on Factor VII coagulation activity was determined using two-stage clotting assays specific for Factor VII function.
Synthetic peptides were individually preincubated with 20 μl each of plasma immunochemically depleted of Factor VII and 0.25% tissue factor at 37 degrees Centigrade in a total volume of 190 μl adjusted with TBS containing 1% BSA and 5 mM CaCl2. At the end of 30 minutes, coagulation was initiated by the addition of 10 μl of Factor VII (1 nM). The time for clot formation was measured using a Fibrometer (BBL, Cockesysville, Md.). Factor VII activity in the presence of varying concentrations of peptide was quantitated by comparing their clotting times to a standard curve constructed from the log of the clot time versus the log of a known amount of Factor VII in the same reaction mixture without added peptide.
as §2, with “To determine the concentration of peptide required to inhibit the rate of Factor X activation by 50% (CI50), peptides at various concentrations or buffer (TBS-BSA) were incubated with their respective complexes.” left out
Based on the results of the chromogenic assays, three peptides, 208-229, 285-305 and 276-390, were selected for further study for their ability to inhibit a coagulation-based assay designed to measure Factor VII activity. […] After Factor VII was added, the time of clot formation was determined and quantitated.

[3] = Table 4, derivatives of inhibitory peptides, read-out: CI50, concentration of peptide inhibiting the rate of Factor Xa activation by 50%

T1 sequence (P13726 33-295, one chain of several): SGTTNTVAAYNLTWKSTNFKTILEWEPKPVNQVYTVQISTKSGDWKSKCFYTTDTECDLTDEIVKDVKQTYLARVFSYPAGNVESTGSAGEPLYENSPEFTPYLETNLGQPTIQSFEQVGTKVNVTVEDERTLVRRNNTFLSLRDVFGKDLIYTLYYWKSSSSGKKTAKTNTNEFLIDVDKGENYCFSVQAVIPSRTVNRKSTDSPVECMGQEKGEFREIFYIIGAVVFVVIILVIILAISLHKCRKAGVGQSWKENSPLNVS

Substance: 193-203: Factor VII region II synthetic peptide used in mixed inhibition; possibly the 196-203 of Table 4 (YPCGKIPILEK; UniProt P08709 193-203, looked up, fragment) [Peptide 193-203]
- Mixed inhibition, mutual exclusivity of peptides 209-221 and 193-203 ([1]; Dixon plots, 193-203 at 0, 14, 28 μM (FIG. 6A), parallel regression lines): mutually exclusive

Substance: AVLGEHDLSEHDG [Peptide 206-218, AVLGEHDLSEHDG]
- IC50 [1]: ~50 µM

Substance: CFDKIKNWRNLIAVLGEHDLS-NH2 [Peptide 194-214]
- IC50 [1]: ~70 µM

Substance: GEHDLSEHDGDEQ [Peptide 209-221, GEHDLSEHDGDEQ]
- IC50 [1]: ~70 µM

Substance: GKVCPKGEC [Peptide 156-164]
- Factor Xa Formation (% of Control Rate) [2]: 97 % of Control Rate

Substance: GQLLDRGATALELMVLNVPRLGC-NH2 [Peptide 285-305]
- Inhibition of clot formation (Factor VII; varying peptide concentrations (FIG. 7)): inhibited clot formation in a dose-dependent manner
- Reduction of the rate and extent of Factor X activation ([2]; 9.5 μM peptide, varying Factor X concentration (FIG. 1)): about 50%
- Factor Xa Formation (% of Control Rate) [2]: 0 % of Control Rate
- Inhibition of the rate of Factor Xa formation relative to control reactions ([2]; 200 μM peptide): completely inhibited
- Mixed inhibition, mutual exclusivity of peptides 209-221 and 285-305 ([2]; Dixon plots, 285-305 at 0, 1.5, 3.0 μM (FIG. 6B), lines intersect above abscissa): lack of mutual exclusively
- Concentration for 50% inhibition, fold less than that for peptide 44-50, 194-214, 208-229 or 376-390 ([2]; FIG. 2): 15 to 20 fold
- Concentration for 50% inhibition, fold less than that seen with peptides 170-178 and 330-340 ([2]; FIG. 2): 75 to 100 fold
- IC50 ([2]; Table 2, read-out: Concentration for 50% Inhibition, Rate of Factor Xa Formation): 3 µM
- IC50 [2, 3]: 3 µM
- Ki ([2]; from Dixon plots of the rate of Factor Xa formation, three Factor X concentrations, read-out: Ki, peptide inhibition constants for Factor VII activity): 2.8 ± 0.4 µM
- Dose-dependent inhibition of the rate of Factor Xa formation / Factor VII activity [2]: significantly inhibit the rate of Factor Xa formation in a dose-dependent manner

Substance: LGEHDLSEHDGDEQSRRVAQVIGC-NH2 [Peptide 208-229]
- IC50 (Factor VII): 225 µM
- IC50 [1]: ~50 µM

Substance: PRLMTQDCLQQSRKVGDSPNITEYMFC [Peptide 303-329]
- Factor Xa Formation (% of Control Rate) [2]: 92 % of Control Rate

Substance: R-T-K-L-F-W-I-S-Y-S-D-G-D-Q-C (RTKLFWISYSDGDQC) [Peptide 36-50]
- Dose-dependent inhibition of the rate of Factor Xa formation / Factor VII activity [2]: significantly inhibit the rate of Factor Xa formation in a dose-dependent manner

Substance: RNLIAVLGEHDLSE [Peptide 202-214, RNLIAVLGEHDLSE]
- IC50 [2, 3]: 205 µM

Substance: VYTRVSQYIEWLQKL-NH2 [Peptide 376-390, VYTRVSQYIEWLQKL]
- IC50 (Factor VII): 172 µM
